This is an account of results in ChEMBL document CHEMBL1201862, “PubChem BioAssay data set” (2004).

Each structure is given as a SMILES string. Calls of active or inactive are those of the source.

In one assay the test system is CHO-K1. Briefly: Counterscreen for antagonists of the orexin 1 receptor (OX1R; HCRTR1): Homogeneous time resolved fluorescence (HTRF)-based cell-based dose response assay to identify antagonists of the parental CHO-K1 cell line. [Related pubchem assays (depositor defined):AID434989, AID435008, AID463079, AID485270, AID492963, AID492964, AID492965, AID493232, AID504699, AID504701]. It counts as functional. The following applies: Cricetulus griseus. Background: A counterscreen serves to expose hits that act by an unwanted route or on another target.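 Also: potency for inhibition of ATP-stimulated IP1 production as antagonists.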

The target of assay [1] is T1, 1-phosphatidylinositol 4,5-bisphosphate phosphodiesterase beta-3 (Homo sapiens, UniProt Q01970).
T1 sequence (Q01970 whole entry): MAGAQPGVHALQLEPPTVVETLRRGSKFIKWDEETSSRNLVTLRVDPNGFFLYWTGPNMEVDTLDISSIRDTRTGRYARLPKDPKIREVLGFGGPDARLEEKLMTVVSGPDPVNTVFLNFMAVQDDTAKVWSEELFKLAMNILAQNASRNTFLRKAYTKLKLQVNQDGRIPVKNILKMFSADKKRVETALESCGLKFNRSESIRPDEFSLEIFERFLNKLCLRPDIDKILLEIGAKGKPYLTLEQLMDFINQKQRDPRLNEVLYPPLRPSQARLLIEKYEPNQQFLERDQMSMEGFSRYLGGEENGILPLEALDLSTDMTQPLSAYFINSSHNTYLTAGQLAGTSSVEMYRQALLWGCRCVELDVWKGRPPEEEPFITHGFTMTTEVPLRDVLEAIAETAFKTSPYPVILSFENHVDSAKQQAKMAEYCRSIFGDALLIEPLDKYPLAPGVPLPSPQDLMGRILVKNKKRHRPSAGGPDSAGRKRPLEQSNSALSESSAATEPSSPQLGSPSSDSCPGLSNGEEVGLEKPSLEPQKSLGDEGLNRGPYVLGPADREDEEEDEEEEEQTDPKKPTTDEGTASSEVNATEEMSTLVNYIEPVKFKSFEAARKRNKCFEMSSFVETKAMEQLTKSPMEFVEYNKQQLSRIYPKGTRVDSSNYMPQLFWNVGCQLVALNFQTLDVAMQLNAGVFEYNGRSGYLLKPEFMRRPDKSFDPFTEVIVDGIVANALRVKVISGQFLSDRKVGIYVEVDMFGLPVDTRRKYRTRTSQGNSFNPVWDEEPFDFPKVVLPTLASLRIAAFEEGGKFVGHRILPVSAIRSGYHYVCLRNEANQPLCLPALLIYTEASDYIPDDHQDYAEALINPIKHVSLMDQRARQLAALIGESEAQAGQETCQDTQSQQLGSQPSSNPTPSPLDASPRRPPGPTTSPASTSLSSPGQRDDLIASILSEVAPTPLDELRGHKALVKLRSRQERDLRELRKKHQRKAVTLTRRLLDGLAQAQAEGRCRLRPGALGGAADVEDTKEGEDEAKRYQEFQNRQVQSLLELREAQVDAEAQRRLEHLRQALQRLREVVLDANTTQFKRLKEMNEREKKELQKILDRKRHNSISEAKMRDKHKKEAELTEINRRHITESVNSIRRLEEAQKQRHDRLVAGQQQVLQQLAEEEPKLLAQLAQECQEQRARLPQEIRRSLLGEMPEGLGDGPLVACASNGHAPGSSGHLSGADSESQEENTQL
Briefly: Fluorescence-based biochemical high throughput dose response assay to identify inhibitors of phospholipase C isozymes (PLC-B3).

In assay [2] the target is T2, Histone-lysine N-methyltransferase NSD2 (Homo sapiens, UniProt O96028).
T2 sequence (O96028 whole entry): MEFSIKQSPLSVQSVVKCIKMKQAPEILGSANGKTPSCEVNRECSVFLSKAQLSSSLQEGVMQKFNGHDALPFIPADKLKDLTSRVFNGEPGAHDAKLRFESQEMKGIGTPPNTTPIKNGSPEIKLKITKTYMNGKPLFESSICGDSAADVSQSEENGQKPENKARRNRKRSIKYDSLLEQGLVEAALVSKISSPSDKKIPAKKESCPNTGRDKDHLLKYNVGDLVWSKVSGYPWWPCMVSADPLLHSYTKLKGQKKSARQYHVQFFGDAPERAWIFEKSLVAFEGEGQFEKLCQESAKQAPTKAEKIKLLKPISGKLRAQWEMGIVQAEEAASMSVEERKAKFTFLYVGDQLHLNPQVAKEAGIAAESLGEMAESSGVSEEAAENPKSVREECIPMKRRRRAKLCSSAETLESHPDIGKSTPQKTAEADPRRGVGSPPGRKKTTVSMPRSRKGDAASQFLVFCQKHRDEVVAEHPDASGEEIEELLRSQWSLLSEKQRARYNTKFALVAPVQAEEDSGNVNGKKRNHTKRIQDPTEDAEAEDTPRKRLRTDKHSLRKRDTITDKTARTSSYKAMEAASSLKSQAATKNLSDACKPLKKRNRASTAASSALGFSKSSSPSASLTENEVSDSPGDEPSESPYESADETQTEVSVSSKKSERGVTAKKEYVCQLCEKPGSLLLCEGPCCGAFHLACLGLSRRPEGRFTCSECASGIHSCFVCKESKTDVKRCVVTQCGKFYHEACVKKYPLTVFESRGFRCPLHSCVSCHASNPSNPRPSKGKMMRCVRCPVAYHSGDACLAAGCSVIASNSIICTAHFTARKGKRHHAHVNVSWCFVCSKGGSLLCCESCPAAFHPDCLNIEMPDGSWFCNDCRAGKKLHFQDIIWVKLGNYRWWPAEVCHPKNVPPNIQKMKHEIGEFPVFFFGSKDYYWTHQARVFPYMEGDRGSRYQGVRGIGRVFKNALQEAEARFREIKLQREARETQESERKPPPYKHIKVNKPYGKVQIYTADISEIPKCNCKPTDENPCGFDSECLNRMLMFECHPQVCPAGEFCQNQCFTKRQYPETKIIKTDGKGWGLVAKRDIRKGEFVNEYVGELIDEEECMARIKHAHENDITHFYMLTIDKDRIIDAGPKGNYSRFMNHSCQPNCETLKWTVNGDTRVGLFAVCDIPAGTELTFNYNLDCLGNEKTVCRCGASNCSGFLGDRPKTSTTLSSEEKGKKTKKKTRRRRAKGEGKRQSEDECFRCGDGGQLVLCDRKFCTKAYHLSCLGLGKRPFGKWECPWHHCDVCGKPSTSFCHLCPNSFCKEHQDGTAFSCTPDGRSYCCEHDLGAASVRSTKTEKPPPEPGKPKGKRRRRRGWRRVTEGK
In kind it is biochemical.

A further assay concerns the target Focal adhesion kinase 1 (Homo sapiens, UniProt Q05397). In kind it is functional.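 Also: measured as one member of a kinome panel.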
Assay [3] addresses Cyclin-dependent kinase 9 (Homo sapiens, UniProt P50750). It counts as functional.
Assay [4] can be described thus: blockers of HIV-1 envelope-mediated cell-cell fusion – cherry-pick, dose response (AID 652057). In kind it is functional, cell-based.

Sequence of Cyclin-dependent kinase 9 (P50750 whole entry, the tested form may be a part): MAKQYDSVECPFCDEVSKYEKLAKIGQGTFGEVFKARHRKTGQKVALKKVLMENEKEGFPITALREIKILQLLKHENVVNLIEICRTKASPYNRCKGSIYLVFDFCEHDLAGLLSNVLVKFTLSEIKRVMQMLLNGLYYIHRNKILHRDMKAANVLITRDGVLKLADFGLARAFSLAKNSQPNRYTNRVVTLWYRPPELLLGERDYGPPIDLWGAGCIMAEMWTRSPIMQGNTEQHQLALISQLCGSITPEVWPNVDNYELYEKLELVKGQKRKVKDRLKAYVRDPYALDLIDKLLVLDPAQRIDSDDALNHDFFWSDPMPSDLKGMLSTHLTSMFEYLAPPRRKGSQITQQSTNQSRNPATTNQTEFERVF
Sequence of Focal adhesion kinase 1 (Q05397 whole entry): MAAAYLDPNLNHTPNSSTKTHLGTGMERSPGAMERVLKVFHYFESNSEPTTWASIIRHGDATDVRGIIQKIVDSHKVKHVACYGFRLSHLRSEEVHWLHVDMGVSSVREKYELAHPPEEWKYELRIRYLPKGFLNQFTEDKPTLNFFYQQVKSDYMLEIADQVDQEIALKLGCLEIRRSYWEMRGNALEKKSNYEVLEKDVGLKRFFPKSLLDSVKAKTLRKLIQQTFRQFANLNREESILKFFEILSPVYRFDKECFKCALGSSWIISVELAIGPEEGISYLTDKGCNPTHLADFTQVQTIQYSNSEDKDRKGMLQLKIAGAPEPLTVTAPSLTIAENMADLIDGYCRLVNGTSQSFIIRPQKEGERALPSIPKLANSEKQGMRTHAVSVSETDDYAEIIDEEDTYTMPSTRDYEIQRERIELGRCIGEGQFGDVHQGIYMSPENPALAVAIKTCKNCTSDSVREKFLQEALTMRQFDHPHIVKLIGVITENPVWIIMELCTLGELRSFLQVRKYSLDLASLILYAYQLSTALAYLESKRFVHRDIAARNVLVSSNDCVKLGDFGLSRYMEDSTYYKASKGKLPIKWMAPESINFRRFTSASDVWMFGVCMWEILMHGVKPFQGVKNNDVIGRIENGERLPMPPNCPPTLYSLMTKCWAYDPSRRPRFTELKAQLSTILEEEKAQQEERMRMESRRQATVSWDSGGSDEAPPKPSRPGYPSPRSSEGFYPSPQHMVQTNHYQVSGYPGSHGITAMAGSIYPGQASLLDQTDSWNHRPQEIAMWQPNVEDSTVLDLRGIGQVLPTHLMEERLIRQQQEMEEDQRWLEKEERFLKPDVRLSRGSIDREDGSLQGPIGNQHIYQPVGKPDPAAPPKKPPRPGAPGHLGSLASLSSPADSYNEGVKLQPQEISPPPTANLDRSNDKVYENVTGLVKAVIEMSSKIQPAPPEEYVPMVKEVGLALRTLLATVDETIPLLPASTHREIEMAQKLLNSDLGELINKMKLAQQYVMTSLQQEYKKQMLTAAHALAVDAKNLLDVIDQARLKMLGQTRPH

The term IC50 denotes the concentration at which inhibition is half-maximal. `Cc1ccc(C(=O)OCn2ncc(Cl)c(Cl)c2=O)cc1`: in the assay with CHO-K1, the IC50 was > 66.2 µM (inactive).
As a reminder, the AC50 is the concentration giving half of the maximal activity seen. `O=C(O)CC(C(=O)O)N1C(=O)/C(=C/C=C/c2ccco2)SC1=S` (stereo unspecified): the IC50 in assay [1] was > 122 µM (inactive). In addition, the AC50 in assay [2] was 4.16 µM (active).
For orientation: Ki means the dissociation constant of the complex between target and ligand, obtained from inhibition or displacement. Regarding `O=C(Nc1cccc(C2Nc3ccc4ccccc4c3C3C=CCC32)c1)c1ccc(F)cc1` (stereo unspecified), the values for the Ki (on Focal adhesion kinase 1; in assay [3]) were > 6.31 µM (inactive) and 0.251 µM (active), respectively.
As to `CCCC(=O)NC(c1cccs1)c1cc(Cl)c2cccnc2c1O` (stereo unspecified), the AC50 in assay [4] was 4.9 µM (active).
